One assay concerns the target T1, 5-HT1A receptor (Rattus norvegicus, UniProt P19327).
T1 construct: the brains were rapidly chilled and dissected to obtain the hippocampi; from tissue; host or cells: hippocampus of male Sprague-Dawley rats (membranes)
T1 sequence (P19327 1-422): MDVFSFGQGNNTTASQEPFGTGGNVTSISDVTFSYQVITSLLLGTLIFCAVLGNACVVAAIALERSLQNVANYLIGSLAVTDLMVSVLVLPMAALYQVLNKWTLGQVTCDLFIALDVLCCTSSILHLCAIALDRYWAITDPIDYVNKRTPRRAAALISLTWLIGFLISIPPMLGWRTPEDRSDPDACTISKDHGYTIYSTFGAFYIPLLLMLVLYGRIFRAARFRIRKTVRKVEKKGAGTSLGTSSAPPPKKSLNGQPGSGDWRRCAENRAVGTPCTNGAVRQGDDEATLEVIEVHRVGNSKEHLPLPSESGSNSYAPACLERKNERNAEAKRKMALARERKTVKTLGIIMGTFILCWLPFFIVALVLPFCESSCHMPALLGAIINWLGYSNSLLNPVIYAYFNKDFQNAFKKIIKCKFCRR
As to the kind of experiment: In vitro binding at the 5-HT1A receptor, inhibition of [3H]8-OH-DPAT binding to hippocampal membranes. On the set-up: species or system male Sprague-Dawley rats. Particulars: [3H]8-OH-DPAT (1.0 nM), 10 minutes at 37° C., pH 7.4. As to the method: The affinities of certain of the compounds of Formula 1 at the central 5-HT1A receptors were determined using a modification of the binding assay described by Taylor, et al., J. Pharmacol. Exp. Ther., 236, 118-125 (1986). Membranes for the binding assay were prepared from male Sprague-Dawley rats (150-250 g). The animals were killed by decapitation, and the brains were rapidly chilled and dissected to obtain the hippocampi. Membranes from the hippocampi were either prepared that day, or the hippocampi were stored frozen (-70° C.) until the day of preparation. The membranes were prepared by homogenizing the tissue in 40 volumes of ice-cold Tris-HCl buffer (50 mM, pH 7.4 at 22° C.) using a Techmar Tissumizer (setting 65 for 15 seconds), and the homogenate was centrifuged at 39800xg for 10 minutes. The resulting pellet was then resuspended in the same buffer, and the centrifugation and resuspension process was repeated three additional times to wash the membranes. Between the second and third washes the resuspended membranes were incubated for 10 minutes at 37° C. to facilitate the removal of endogenous ligands. The final pellet was resuspended in 67 mM Tris-HCl, pH 7.4, to a concentration of 2 mg of tissue original wet weight/200 μl. This homogenate was stored frozen (-70° C.) until the day of the binding assay. […] The assay tubes were incubated for 10 minutes at 37° C., and the contents were then rapidly filtered through GF/B filters (pretreated with 0.5% polyethylenimine), tollowed by four 1 ml washes with ice-cold buffer. The radioactivity trapped by the filters was quantitated by liquid scintillation spectometry, and specific [^3 H]8-OH-DPAT binding to the 5-HT1A sites was defined as the difference between [^3 H]8-OH-DPAT bound in the presence and absence of 10 μM 5-HT.
In Table 1, the first column provides the example number of the compound evaluated while the second column provides the amount of test compound (expressed in nanomolar concentration) required to inhibit the binding of [^3 H]8-OH-DPAT by 50% (indicated as IC50).

The next assay deals with T2, 5-HT1D receptor (Bos taurus, UniProt F1MGM3).
T2 construct: Bovine brains were obtained and the caudate nuclei were dissected out; from tissue; host or cells: bovine caudate nuclei (membranes)
T2 sequence (F1MGM3 1-403): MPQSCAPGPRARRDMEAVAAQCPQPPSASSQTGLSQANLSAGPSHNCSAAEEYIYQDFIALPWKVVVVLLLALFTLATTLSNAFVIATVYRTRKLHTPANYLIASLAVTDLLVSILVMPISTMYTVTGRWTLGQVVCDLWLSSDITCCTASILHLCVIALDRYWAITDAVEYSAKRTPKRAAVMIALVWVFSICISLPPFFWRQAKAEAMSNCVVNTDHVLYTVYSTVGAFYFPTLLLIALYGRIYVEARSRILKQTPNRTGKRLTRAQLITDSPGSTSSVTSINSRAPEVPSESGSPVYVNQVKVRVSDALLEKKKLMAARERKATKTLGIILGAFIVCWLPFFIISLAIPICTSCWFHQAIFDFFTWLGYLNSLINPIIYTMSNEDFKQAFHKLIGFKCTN
Briefly: In vitro binding activity at the 5-HT1D receptor, inhibition of [3H]5-HT binding to caudate nuclei membranes. Particulars: [3H]5-HT (1.7-1.9 nM), bovine caudate membranes, 8-OH-DPAT and mesulergine 100 nM masking, 10 minutes at 37° C., pH 7.4. As to the method: The affinities of certin of the compounds of Formula 1 at the central 5-HT1D binding sites were determined using a modification of the binding assay described by Heuring and Peroutka, J. Neurosci., 7, 894 (1987). Bovine brains were obtained and the caudate nuclei were dissected out and frozen at -70° C. until the time that the membranes were prepared for the binding assays. At that time the tissues were homogenized in 40 volumes of ice-cold Tris-HCl buffer (50 mM, pH 7.4 at 22° C.) with a Techmar Tissumizer (setting 65 for 15 seconds), and the homogenate was centrifuged at 39,800xg for 10 minutes. The resulting pellet was then resuspended in the same buffer, and the centrifugation and resuspension process was repeated three additional times to wash the membranes. Between the second and third washes the resuspended membranes were incubated for 10 minutes at 37° C. to facilitate the removal of endogenous 5-HT. The final pellet was resuspended in Tris buffer to a concentration of 25 mg of original tissue wet weight/ml for use in the binding assay. […] The assay tubes were incubated for 10 minutes at 37° C., and the contents were then rapidly filtered through GF/B filters (pretreated with 0.5% polyethylenimine), followed by four 1 ml washes with ice-cold buffer. The radioactivity trapped by the filters was quantitated by liquid scintillation spectrometry, and specific [^3 H]5-HT binding to the 5-HT1D sites was defined as the difference between [^3 H]5-HT bound in the presence and absence of […] 5-HT.
In Table 2, the first column provides the example number of the compound evaluated while the second column provides the amount of test compound (expressed in nanomolar concentration) required to inhibit the binding of [^3 H]5-HT by 50% (indicated as IC50).

The test system of assay [1] is serotonin metabolite 5-hydroxyindole acetic acid (5HIAA). Briefly: Effect on serotonin turnover in vivo, decrease of 5HIAA concentration in whole brain. On the set-up: species or system Male albino rats. Particulars: Rattus norvegicus, 1 h, rats, whole brain 5HIAA, one hour after dosing (generally a 15-20% decrease). As to the method:
In another experiment certain compounds of Formula 1 were evaluated to determine ability to affect serotonin turnover in vivo. As a measure of such affect on serotonin turnover, the decrease of the serotonin metabolite 5-hydroxyindole acetic acid (5HIAA) was measured. The following protocol was employed.
Male albino rats were injected either subcutaneously or orally with an aqueous solution of the compound tested. The pH of the solution was adjusted as necessary to solubilize the compound. A control of the solution without the test compound was similarly administered to a control animal. The rats were decapitated one hour later. The whole brain was then removed and frozen on dry ice for storage prior to analysis. 5-Hydroxyindole acetic acid (5HIAA) concentration in whole brain was measured by liquid chromatography with electrochemical detection as reported by Fuller and Perry, "Effects of Buspirone and its Metabolite, 1-(2-pyrimidinyi)piperazine, on Brain Monoamines and Their Metabolites in Rats", J. Pharmacol. Ext. Ther., 248, p. 50-56 (1989), incorporated herein by reference.
In Table III, Column 1 provides the Example No. of the compound tested while Column 2 provides the minimum effective dose (in mg/kg) required to produce a statistically significant decrease in 5HIAA concentration relative to control (generally a 15-20% decrease) for both oral and subcutaneous methods of administration.

Where [2] appears, read: po, p.o., read-out: Minimum Effective Dose (mg/kg) p.o., for a statistically significant decrease in 5HIAA concentration relative to control.
Where [3] appears, read: sc, s.c., read-out: Minimum Effective Dose (mg/kg) s.c., for a statistically significant decrease in 5HIAA concentration relative to control.

Structures are written as SMILES. Like-named read-outs stand apart in the source and are kept apart here.

Turning to `CCCN(CCC)[C@@H]1Cc2c[nH]c3ccc(-c4ccon4)c(c23)C1` [Example 24, (+)(4S)-6-(3-isoxazoly)-4-(di-n-propylamino)-1,3,4,5-tetrahydrobenz[cd]indole], the IC50 (commonly the midpoint of a concentration-inhibition curve) came out at 0.61 nM at 5-HT1A receptor and 18.6 nM at 5-HT1D receptor.
For `CCCN(CCC)[C@H]1Cc2c[nH]c3ccc(-c4ccno4)c(c23)C1` [Example 26, (-)(4R)-6-(5-isoxazolyl)-4-(di-n-propylamino)-1,3,4,5-tetrahydrobenz[cd]indole], the IC50 on 5-HT1A receptor was 0.1 nM; at 5-HT1D receptor it was 46.4 nM.
For `CCCN(CCC)[C@H]1Cc2c[nH]c3ccc(-c4nc(-c5ccccc5)no4)c(c23)C1` [Example 30, (-)(4R)-6-(3-phenyl-1,2,4-oxadiazol-5-yl)-4-(di-n-propylamino)-1,3,4,5-tetrahydrobenz-[cd]indole], the IC50 on 5-HT1A receptor is 7.1 nM.
For the molecule `CCCN(CCC)[C@H]1Cc2c[nH]c3ccc(-c4ncco4)c(c23)C1` [Example 31, (-)(4R)-6-(2-oxazolyl)-4-(di-n-propylamino)-1,3,4,5-tetrahydrobenz[cd]indole], the minimal effective dose in assay [1] (setting [2]) and in assay [1] (setting [3]) was 1 mg/kg throughout. Besides, the IC50 at 5-HT1A receptor came out at 2.77 nM; at 5-HT1D receptor, 280 nM.
For `CCCN(CCC)[C@H]1Cc2c[nH]c3ccc(-c4cnco4)c(c23)C1` [Example 32, (-)(4R)-6-(5-oxazolyl)-4-(di-n-propylamino)-1,3,4,5-tetrahydrobenz[cd]indole], the values for the IC50 on 5-HT1A receptor and on 5-HT1D receptor were 0.53 nM and 74.4 nM, respectively.
In the case of `CCCN(CCC)[C@H]1Cc2c[nH]c3ccc(-c4cccnc4)c(c23)C1` [Example 33, (-)(4R)-6-(3-pyridyl)-4-(di-n-propylamino)-1,3,4,5-tetrahydrobenz[cd]indol], the results for the minimal effective dose in assay [1] (setting [2]) and in assay [1] (setting [3]) were over 10 mg/kg and 0.3 mg/kg, respectively. In addition, the IC50 on 5-HT1A receptor amounted to 0.87 nM; at 5-HT1D receptor, 29.4 nM.
For `CCCN(CCC)[C@H]1Cc2c[nH]c3ccc(-c4nnco4)c(c23)C1` [Example 34, (4R)-6-[2-(1,3,4-oxadiazolyl)]-4-(di-n-propylamino)-1,3,4,5-tetrahydrobenz[cd]indole] the same measures were 10 mg/kg, 0.1 mg/kg, 0.75 nM and 577 nM.
With `CCCN(CCC)[C@H]1Cc2c[nH]c3ccc(-c4nnc(-c5ccccc5)o4)c(c23)C1` [Example 35, (-)(4R)-6-(5-phenyl-1,3,4-oxadiazol-2-yl)-4-(di-n-propylamino)-1,3,4,5-tetrahydrobenz[cd]indole], the minimal effective dose in assay [1] (setting [3]) was over 1 mg/kg. This molecule also displayed an IC50 at 5-HT1A receptor of 19 nM.

(Values after patent US5594019A, “6-heterocyclic-4-amino-1,3,4,5-tetrahydrobenz[CD]indoles” (Eli Lilly and Company, priority 1994, dated 1997).)
